Results reported in patent US20110178139A1, “Pyridoxamine for the Treatment of Diabetic Kidney Disease” (priority 2004, published 2011).

Legend:
[1] = system: diabetic nephropathy patients; experiment: Separate study: six months of escalating doses of pyridoxamine dihydrochloride in addition to standard of care; assay type: in vivo, human
Description: In a separate study, diabetic nephropathy patients received six months of treatment of escalating doses of pyridoxamine dihydrochloride (50 mg, 100 mg, and 250 mg), administered orally via capsules twice daily as follows:
50 mg bid for 2 weeks, then if tolerated:
10 mg bid for 2 weeks, then if tolerated:
The study drug was administered in addition to standard of care therapy. The patient population consisted of male and female patients between 18 and 70 years of age with diabetic nephropathy associated with type 1 or type 2 diabetes, serum creatinine of […], and macroalbuminuria confirmed with baseline urinary albumin excretion≧300 mg/24 his.
84 patients received at least one dose of the study drug (57 pyridoxamine dihydrochloride; 27 placebo.
Baseline characteristics of the patients included serum creatinine of 1.91 mg/dL and urinary albumin excretion of 957 mg/12 h in treatment, versus 1.95 mg/dL and 1224 mg/12 h in placebo groups.

[2] = system: patients with type 1 and type 2 DM and overt nephropathy; experiment: Randomized, double-blind, placebo-controlled, multicenter trial (PYR206) of PYR 50 mg b.i.d. for six months; assay type: in vivo, human
Description: A randomized, double-blind, placebo-controlled, multicenter trial which examined the safety profile of pyridoxamine dihydrochloride (PYR) in patients with type 1 and type 2 DM and overt nephropathy was conducted. 128 patients (48 type 1, 80 type 2) at 32 sites were randomized to receive either PYR 50 mg twice a day (b.i.d) or placebo for six months, 58 patients in each group completed the study. Groups were well matched at baseline for age, race, gender, blood pressure, hemoglobin AlC (HbAlC), and angiotensin converting enzyme inhibitor (ACEI)/angiotensin receptor blocker (ARB) use.
Baseline characteristics of the patients included serum creatinine=1.27 mg/dL and urinary albumin excretion=868 mg/12 h in treatment, versus 1.33 mg/dL and 1055 mg/12 h in placebo groups (differences not significant, NS).
In addition, the urinary levels of TGF beta in the subjects completing the PYR206 study (combined type 1 and type 2 patients) were tested. This growth factor is an important and accepted marker of renal disease, since it initiates or controls a cascade of cellular changes (from diabetes and other diseases) that lead to mesangial expansion and eventually fibrosis in the kidney. […] This is strong evidence of the action of PYR in retarding or halting the nephropathy due to the diabetes.

[3] = escalating doses 50, 100, 250 mg bid, six months, no significant difference vs placebo
[4] = PYR 50 mg b.i.d., six months, no significant difference vs placebo

`Cc1ncc(CO)c(CN)c1O.Cl.Cl` [PYR, pyridoxamine dihydrochloride] was tested, and the serious adverse events ([1]; escalating doses 50, 100, 250 mg bid, six months, higher rate than placebo (3.7%)) was 21.1%, the “study discontinuation due to AE's” value [1, 3] was 8.8% and the treatment-related adverse events [1, 3] was 35.1%. For the same compound, the “rate of rise in serum creatinine” value ([1]; type 2 patients taking ACE-I or ARB with baseline serum creatinine ≧1.3 mg/dL (predefined subgroup), p<0.0001 vs placebo) was 0.144 mg/dL/yr, the serious adverse events [2, 4] was 11% and the “study discontinuation due to AE's” value [2, 4] was 6%. The treatment-related adverse events [2, 4] was 26%, the scored neurotoxicity testing ([2]; PYR 50 mg b.i.d., six months, vs placebo) was “No significant differences” and the “mean rate of rise in serum creatinine” value ([2]; all patients, 50 mg b.i.d., six months, p=0.0065 by ANOVA vs placebo) was 0.178 mg/dL/yr. The “rise in mean urinary albumin excretion rate” value ([2]; all patients, p=0.017, ANOVA vs placebo) was 122 mg/12 h/yr, the “decrease in urinary TGF beta levels (pg TGF/mg Cr)” value ([2]; combined type 1 and type 2 patients completing the study, six months, preliminary analysis, placebo increased 43%) was “about 24%” and the rise in albuminuria ([2]; patients with baseline HbAlC over 7.275%, p=0.0282, ANOVA) was “reversed”. The “rate of rise in serum creatinine” value ([2]; patients with baseline serum creatinine ≧1.3 mg/dL, p<0.0001 vs placebo) was 0.17 mg/dL/yr, the “rate of rise in serum creatinine” value ([2]; type 2 patients taking ACE-I or ARB with baseline serum creatinine ≧1.3 mg/dL (predefined subgroup), p<0.0057 vs placebo) was 0.138 mg/dL/yr and the “incidence of sensory system neurologic adverse events” value ([2]; vs placebo (Table 5)) was “significantly reduced”.
